{"source": "patent US20240423995A1", "about": "“C-KIT INHIBITORS AND USES FOR TREATING AND PREVENTING INFLAMMATORY CONDITIONS” (GEORGETOWN UNIVERSITY, priority 2023, published 2024)", "key": {"[1]": {"molecular_target": "T1, KIT (V559D, T670I) (Homo sapiens, UniProt P10721, T670I/V559D)", "T1 construct": "purchased Eurofins DiscoverX Corporation", "T1 sequence (P10721 26-976 V559D/T670I)": "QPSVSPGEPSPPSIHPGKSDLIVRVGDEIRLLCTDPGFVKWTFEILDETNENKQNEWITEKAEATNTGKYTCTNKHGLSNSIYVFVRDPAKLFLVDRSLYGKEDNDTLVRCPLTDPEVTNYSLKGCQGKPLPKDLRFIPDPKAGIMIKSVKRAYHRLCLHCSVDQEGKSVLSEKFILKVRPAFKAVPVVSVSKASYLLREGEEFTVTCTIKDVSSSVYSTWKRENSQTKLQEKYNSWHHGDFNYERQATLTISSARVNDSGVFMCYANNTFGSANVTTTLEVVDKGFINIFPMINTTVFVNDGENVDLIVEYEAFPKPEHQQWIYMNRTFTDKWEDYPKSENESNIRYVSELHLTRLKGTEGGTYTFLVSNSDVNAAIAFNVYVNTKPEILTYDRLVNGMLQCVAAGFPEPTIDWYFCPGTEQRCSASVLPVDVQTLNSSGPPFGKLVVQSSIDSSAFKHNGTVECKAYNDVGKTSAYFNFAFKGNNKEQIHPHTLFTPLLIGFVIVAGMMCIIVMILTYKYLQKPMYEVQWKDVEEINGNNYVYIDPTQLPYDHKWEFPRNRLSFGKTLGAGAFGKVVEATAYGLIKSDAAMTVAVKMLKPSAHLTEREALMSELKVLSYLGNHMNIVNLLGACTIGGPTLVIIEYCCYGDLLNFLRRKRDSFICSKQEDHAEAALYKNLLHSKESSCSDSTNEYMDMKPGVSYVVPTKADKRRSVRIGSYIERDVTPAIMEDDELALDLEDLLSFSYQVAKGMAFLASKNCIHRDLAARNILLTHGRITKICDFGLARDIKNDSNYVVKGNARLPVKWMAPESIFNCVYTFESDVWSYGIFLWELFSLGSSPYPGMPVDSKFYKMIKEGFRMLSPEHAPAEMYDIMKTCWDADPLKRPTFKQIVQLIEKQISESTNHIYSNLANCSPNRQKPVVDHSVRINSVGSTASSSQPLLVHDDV", "test": "KINOMEscan competition binding screen, KIT (V559D, T670I)", "details": "for remaining binding at 10 µM: read-out: % Ctrl @ 10 μM", "experimental": "(§1) The KINOMEscan™ screening platform (Eurofins DiscoverX Corporation, San Diego, USA) was performed using an active site-directed competition binding assay to quantitatively measure interactions between BK40143, BK40197, BK40195, and BK40196 and more than 450 human kinases and disease relevant mutant variants. […] Screening “hits” were identified by measuring the amount of kinase captured in test (BK40143, BK40197, BK40195, and BK40196) versus control samples by using a quantitative and ultra-sensitive qPCR method that detects the associated DNA label. BK40143, BK40197, BK40195, and BK40196 were screened at 10 μM concentration, and results for primary screen binding interactions were reported as ‘% Ctrl’ (POC), where lower numbers indicate stronger hits and calculated as follows:\n(§2) [formula] • test compound=BK40143 or BK40197 or BK40195 or BK40196 • negative control=DMSO (100% Ctrl) • positive control=control compound (0% Ctrl)\n(§3) Based on screening data of profiled compounds, a proportional relationship between primary screening results and corresponding compound/target affinities can be described as binding constants (Kd values) for the indicated ranges of percent of control (PoC) values, with tighter binding (higher affinity) interactions associated with lower PoC values, and weaker binding (lower affinity) associated with higher PoC values. Briefly, kinase-tagged T7 phage strains were grown in parallel in 24-well blocks in an E. coli host derived from the BL21 strain. E. coli were grown to log-phase and infected with T7 phage from a frozen stock (multiplicity of infection=0.4) and incubated with shaking at 32° C. until lysis (90-150 minutes). The lysates were centrifuged (6,000×g) and filtered ([…]) to remove cell debris. The remaining kinases were produced in HEK-293 cells and subsequently tagged with DNA for qPCR detection. Streptavidin-coated magnetic beads were treated with biotinylated small molecule ligands for 30 minutes at room temperature to generate affinity resins for kinase assays. The liganded beads were blocked with excess biotin and washed with blocking buffer (SeaBlock (Pierce), 1% BSA, 0.05% Tween 20, 1 mM DTT) to remove unbound ligand and to reduce non-specific phage binding. Binding reactions were assembled by combining kinases, liganded affinity beads, and test compounds in 1× binding buffer (20% SeaBlock, 0.17×PBS, 0.05% Tween 20, 6 mM DTT). Test compounds were prepared as 100× stocks in 100% DMSO and directly diluted into the assay. All reactions were performed in polypropylene 384-well plates in a final volume of 0.02 ml. The assay plates were incubated at room temperature with shaking for 1 hour and the affinity beads were washed with wash buffer (1×PBS, 0.05% Tween 20). The beads were then re-suspended in elution buffer (1×PBS, 0.05% Tween 20, 0.5 μM non-biotinylated affinity ligand) and incubated at room temperature with shaking for 30 minutes. The kinase concentration in the eluates was measured by qPCR."}, "[2]": {"molecular_target": "T2, FYN (Homo sapiens, UniProt P06241)", "T2 construct": "purchased Eurofins DiscoverX Corporation", "test": "KINOMEscan competition binding screen, FYN", "details": "for remaining binding at 10 µM: read-out: % Ctrl @ 10 μM", "experimental": "as §1, §2, §3"}, "[3]": {"molecular_target": "T3, SRC (Homo sapiens, UniProt P12931)", "T3 construct": "purchased Eurofins DiscoverX Corporation", "test": "KINOMEscan competition binding screen, SRC", "details": "for remaining binding at 10 µM: read-out: % Ctrl @ 10 μM", "experimental": "as §1, §2, §3"}, "[4]": {"tested_on": "mast cell degranulation", "test": "Compound 48/80-induced mast cell degranulation in wild type C57BL/6 mice, toluidine blue blood smear", "assay_type": "in vivo", "details": "for mast cell degranulation 0.5-1.5 hours post-injection of C48/40: approximately two hours before I.P. injection of compound 48/80, toluidine blue blood smear; for effect on mast cell degranulation induced by C48/40: single I.P. injection two hours prior to compound 48/80 treatment, blood smear", "experimental": "Wild type C57BL/6J mice were treated with C48/40 to induce mast cell activation. Compound 48/80 is a polymer produced by the condensation of N-methyl-p-methoxyphenethylamine with formaldehyde. It promotes histamine release, and in biochemical research, compound 48/80 (for example, Catalog No. C2313, Sigma-Aldrich, St. Louis, MO) is used to promote mast cell degranulation. Male and female, 4-8 months old wild type C57BL/6 mice were treated only once with intraperitoneal (I.P.) injection of DMSO (control) or DMSO for 2 hours followed by C48/40 for 0.5-1.5 hours. Mice were injected with DMSO approximately 2 hours prior to injection (IP) with 50 μg C48/40 to show degranulation of mast cells 0.5-1.5 hours post-injection of C48/40. Animals were also injected with 20 mg/kg BK40197, BK40195 or BK40196; or 10 mg/kg BK40143 approximately two hours before I.P. injection of C48/40 to show the effects of the drugs on mast cell degranulation approximately 0.5-1.5 hours post-injection of C48/40. Drugs and C48/40 were injected on the same site. n=6 per treatment. Blood was collected and a smear was prepared and stained with Toluidine blue to show mast cell morphology."}, "[5]": {"molecular_target": "T4, KIT (A829P) (Homo sapiens, UniProt P10721, A829P)", "T4 construct": "purchased Eurofins DiscoverX Corporation", "T4 sequence (P10721 26-976 A829P)": "as the sequence (P10721 26-976 V559D/T670I) above, with D534V, I645T, A804P counted along it", "test": "KINOMEscan competition binding screen, KIT (A829P)", "details": "for remaining binding at 10 µM: read-out: % Ctrl @ 10 μM", "experimental": "as §1, §2, §3"}, "[6]": {"tested_on": "mast cells (blood)", "test": "MC maturation in blood of transgenic APP mice by flow cytometry", "assay_type": "in vivo", "details": "six weeks, vs DMSO", "experimental": "12-month-old transgenic APP mice were injected intraperitoneally with either 5 mg/kg BK40143 or DMSO for six weeks before whole-blood samples were collected into tubes with 1000 U/mL heparin. Blood samples were then treated with the three flow-conjugated antibodies and analyzed for maturation of mast cell progenitors to mature mast cells, as described in Examples 3 and 4. Group differences were compared using an unpaired Student's t-test.\n(§4) 12-month-old transgenic APP mice were injected intraperitoneally with either 25 mg/kg BK40195 or DMSO for six weeks before having whole-blood samples collected into tubes containing 1000 U/mL heparin. Blood samples were then treated with the three flow-conjugated antibodies and analyzed for maturation of mast cell progenitors to mature mast cells, as described in Example 5. Differences were compared using an unpaired Student's t-test.\nas §4, with “45” for “25”, “BK40197” for “BK40195”"}}, "data": [{"smiles": "Cc1cccc(-c2cc3nccc(Nc4cccc(O)c4)c3s2)c1", "note": "[BK40196]", "values": [{"measurement": "inhibition at 10 µM", "setting": "[1]", "value": 97.6, "unit": "%"}, {"measurement": "remaining binding at 10 µM", "setting": "[1]", "value": 2.4, "unit": "%"}, {"measurement": "inhibition at 10 µM", "setting": "[2]", "value": 100, "unit": "%"}, {"measurement": "remaining binding at 10 µM", "setting": "[2]", "value": 0, "unit": "%"}, {"measurement": "inhibition at 10 µM", "setting": "[3]", "value": 99.9, "unit": "%"}, {"measurement": "remaining binding at 10 µM", "setting": "[3]", "value": 0.1, "unit": "%"}, {"measurement": "mast cell degranulation 0.5-1.5 hours post-injection of C48/40", "setting": "[4]; 10 mg/kg", "value": "absence of mast cell degranulation"}, {"measurement": "effect on mast cell degranulation induced by C48/40", "setting": "[4]", "value": "significantly prevented mast cell degranulation"}, {"measurement": "inhibition at 10 µM", "setting": "[5]", "value": 79, "unit": "%"}, {"measurement": "remaining binding at 10 µM", "setting": "[5]", "value": 21, "unit": "%"}]}, {"smiles": "Cc1cccc(-c2cc3nccc(Nc4ccccc4)c3s2)c1", "note": "[BK40143]", "values": [{"measurement": "inhibition at 10 µM", "setting": "[1]", "value": 81, "unit": "%"}, {"measurement": "remaining binding at 10 µM", "setting": "[1]", "value": 19, "unit": "%"}, {"measurement": "ratio of immature MCs (CD117 only) to mature MCs (CD117 and FceR1)", "setting": "[6]; 5 mg/kg intraperitoneal, p=0.03", "value": "significantly increased"}, {"measurement": "inhibition at 10 µM", "setting": "[2]", "value": 90, "unit": "%"}, {"measurement": "remaining binding at 10 µM", "setting": "[2]", "value": 10, "unit": "%"}, {"measurement": "inhibition at 10 µM", "setting": "[3]", "value": 94.7, "unit": "%"}, {"measurement": "remaining binding at 10 µM", "setting": "[3]", "value": 5.3, "unit": "%"}, {"measurement": "mast cell degranulation 0.5-1.5 hours post-injection of C48/40", "setting": "[4]; 10 mg/kg", "value": "absence of mast cell degranulation"}, {"measurement": "effect on mast cell degranulation induced by C48/40", "setting": "[4]", "value": "significantly prevented mast cell degranulation"}, {"measurement": "inhibition at 10 µM", "setting": "[5]", "value": 48, "unit": "%"}, {"measurement": "remaining binding at 10 µM", "setting": "[5]", "value": 52, "unit": "%"}]}, {"smiles": "COc1cccc(Nc2ccnc3cc(-c4cccc(C)c4)sc23)c1", "note": "[BK40195]", "values": [{"measurement": "inhibition at 10 µM", "setting": "[1]", "value": 97.5, "unit": "%"}, {"measurement": "remaining binding at 10 µM", "setting": "[1]", "value": 2.5, "unit": "%"}, {"measurement": "ratio of immature MCs (CD117 only) to mature MCs (CD117 and FceR1)", "setting": "[6]; 25 mg/kg intraperitoneal, p=0.04", "value": "significantly increased"}, {"measurement": "inhibition at 10 µM", "setting": "[2]", "value": 97.6, "unit": "%"}, {"measurement": "remaining binding at 10 µM", "setting": "[2]", "value": 2.4, "unit": "%"}, {"measurement": "inhibition at 10 µM", "setting": "[3]", "value": 99.7, "unit": "%"}, {"measurement": "remaining binding at 10 µM", "setting": "[3]", "value": 0.35, "unit": "%"}, {"measurement": "mast cell degranulation 0.5-1.5 hours post-injection of C48/40", "setting": "[4]; 20 mg/kg", "value": "absence of mast cell degranulation"}, {"measurement": "effect on mast cell degranulation induced by C48/40", "setting": "[4]", "value": "significantly prevented mast cell degranulation"}, {"measurement": "inhibition at 10 µM", "setting": "[5]", "value": 93.7, "unit": "%"}, {"measurement": "remaining binding at 10 µM", "setting": "[5]", "value": 6.3, "unit": "%"}]}, {"smiles": "Cc1cccc(-c2cc3nccc(N4CCOCC4)c3s2)c1", "note": "[BK40197]", "values": [{"measurement": "inhibition at 10 µM", "setting": "[1]", "value": 80, "unit": "%"}, {"measurement": "remaining binding at 10 µM", "setting": "[1]", "value": 20, "unit": "%"}, {"measurement": "ratio of immature MCs (CD117 only) to mature MCs (CD117 and FceR1)", "setting": "[6]; 45 mg/kg intraperitoneal, p=0.07", "value": "significantly increased"}, {"measurement": "inhibition at 10 µM", "setting": "[2]", "value": 44, "unit": "%"}, {"measurement": "remaining binding at 10 µM", "setting": "[2]", "value": 56, "unit": "%"}, {"measurement": "inhibition at 10 µM", "setting": "[3]", "value": 19, "unit": "%"}, {"measurement": "remaining binding at 10 µM", "setting": "[3]", "value": 81, "unit": "%"}, {"measurement": "mast cell degranulation 0.5-1.5 hours post-injection of C48/40", "setting": "[4]; 20 mg/kg", "value": "absence of mast cell degranulation"}, {"measurement": "effect on mast cell degranulation induced by C48/40", "setting": "[4]", "value": "significantly prevented mast cell degranulation"}, {"measurement": "inhibition at 10 µM", "setting": "[5]", "value": 0, "unit": "%"}, {"measurement": "remaining binding at 10 µM", "setting": "[5]", "value": 100, "unit": "%"}]}]}
